Laboratory results: patent publication US20180099931A1 (AbbVie S.à.r.l., priority 2016, published 2018)
Where two headings read alike, the source gives them in different places.

Molecular target: T1, F508delCFTR (Homo sapiens, UniProt P13569, DEL508-508)
T1 construct: expressed in transfected cells; host or cells: CFBE41o- human lung-derived epithelial cells (CFBE4lo-F508delCFTR-HRP), doxycycline-inducible
Assay: Cell Surface Expression-Horse Radish Peroxidase (CSE-HRP) Assay;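 as to Maximum % activity (with co-corrector): co-corrector and positive control are both the same reference corrector at 2 µM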;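 as to Maximum % activity (without co-corrector): percent of the 2 µM on-plate positive control corrector response above DMSO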
Assay type: cell-based
Conditions: for Maximum % activity (with co-corrector) / Emax: maximum at any tested concentration, normalized to on-plate positive control; for Emax: read-out: Maximum % activity (without co-corrector)

[1] = test compound without co-corrector, read-out: EC50 (without co-corrector)
[2] = with co-corrector (2 μM of 3-[(2R,4R)-4-({[1-(2,2-difluoro-1,3-benzodioxol-5-yl)cyclopropyl]carbonyl}amino)-7-methoxy-3,4-dihydro-2H-chromen-2-yl]benzoic acid), read-out: EC50 (with co-corrector)
[3] = CSE-HRP, test compound without co-corrector, read-out: EC50 (without co-corrector)
[4] = CSE-HRP, with co-corrector (2 μM of 3-[(2R,4R)-4-({[1-(2,2-difluoro-1,3-benzodioxol-5-yl)cyclopropyl]carbonyl}amino)-7-methoxy-3,4-dihydro-2H-chromen-2-yl]benzoic acid), read-out: EC50 (with co-corrector)
[5] = CSE-HRP, with co-corrector (2 μM)
[6] = test compound without co-corrector
[7] = with co-corrector (2 μM of 3-[(2R,4R)-4-({[1-(2,2-difluoro-1,3-benzodioxol-5-yl)cyclopropyl]carbonyl}amino)-7-methoxy-3,4-dihydro-2H-chromen-2-yl]benzoic acid)

T1 sequence (P13569 with tags, fused parts or gaps DEL508-508): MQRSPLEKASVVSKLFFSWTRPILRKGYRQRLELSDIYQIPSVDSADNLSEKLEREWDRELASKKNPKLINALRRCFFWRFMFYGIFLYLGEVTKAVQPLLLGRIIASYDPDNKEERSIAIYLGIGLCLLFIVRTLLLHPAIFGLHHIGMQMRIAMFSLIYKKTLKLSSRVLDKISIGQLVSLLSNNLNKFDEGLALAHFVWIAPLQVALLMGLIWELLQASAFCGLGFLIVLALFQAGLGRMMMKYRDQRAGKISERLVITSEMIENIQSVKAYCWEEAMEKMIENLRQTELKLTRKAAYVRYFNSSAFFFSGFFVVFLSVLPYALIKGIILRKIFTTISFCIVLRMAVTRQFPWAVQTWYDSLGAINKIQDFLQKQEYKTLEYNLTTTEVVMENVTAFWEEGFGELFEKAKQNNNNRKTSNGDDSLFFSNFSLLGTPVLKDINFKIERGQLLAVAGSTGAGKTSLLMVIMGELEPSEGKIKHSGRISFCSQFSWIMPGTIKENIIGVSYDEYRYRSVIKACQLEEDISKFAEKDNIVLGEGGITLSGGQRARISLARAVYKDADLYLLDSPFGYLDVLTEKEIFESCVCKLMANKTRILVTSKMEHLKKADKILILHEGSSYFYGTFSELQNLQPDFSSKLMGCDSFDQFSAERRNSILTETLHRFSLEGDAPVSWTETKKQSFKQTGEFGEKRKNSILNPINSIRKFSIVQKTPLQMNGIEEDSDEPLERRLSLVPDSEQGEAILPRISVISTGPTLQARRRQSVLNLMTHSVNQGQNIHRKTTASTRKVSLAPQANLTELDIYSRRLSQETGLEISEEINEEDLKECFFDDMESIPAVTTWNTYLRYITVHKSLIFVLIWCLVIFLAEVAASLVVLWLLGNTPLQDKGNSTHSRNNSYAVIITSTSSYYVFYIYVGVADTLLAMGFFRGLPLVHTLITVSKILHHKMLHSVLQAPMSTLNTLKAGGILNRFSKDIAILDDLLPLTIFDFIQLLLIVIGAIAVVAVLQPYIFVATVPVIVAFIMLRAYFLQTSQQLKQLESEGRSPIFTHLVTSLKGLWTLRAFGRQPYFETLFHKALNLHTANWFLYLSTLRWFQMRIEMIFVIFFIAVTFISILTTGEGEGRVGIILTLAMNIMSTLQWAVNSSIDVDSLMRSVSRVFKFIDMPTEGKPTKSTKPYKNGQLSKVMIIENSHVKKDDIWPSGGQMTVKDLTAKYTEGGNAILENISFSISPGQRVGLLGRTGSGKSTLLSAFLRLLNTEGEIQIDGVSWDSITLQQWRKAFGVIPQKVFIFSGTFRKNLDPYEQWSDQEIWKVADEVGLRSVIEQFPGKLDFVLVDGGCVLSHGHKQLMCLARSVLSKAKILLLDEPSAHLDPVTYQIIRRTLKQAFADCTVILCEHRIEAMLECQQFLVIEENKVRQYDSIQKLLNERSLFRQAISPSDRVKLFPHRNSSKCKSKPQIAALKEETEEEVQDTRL

Row | Structure (SMILES) | EC50 [1] | EC50 [2] | Maximum % activity (with co-corrector) (with co-corrector (2 μM)) | Emax (without co-corrector) | EC50 [3] | EC50 [4] | Maximum % activity (with co-corrector) [5] | Emax (CSE-HRP, without co-corrector) | Emax [6] | Maximum % activity (with co-corrector) [7]
1 | COc1ccc(C(C)(C)C)cc1CN[C@H]1[C@H](C(C)(C)C)[C@@H](C(=O)O)N(C(=O)[C@@]2(C)COc3cc4c(cc32)OC(F)(F)O4)[C@H]1c1cccnc1OC [Example I-254] | – | – | – | – | 1000 to 10000 nM | 1000 to 10000 nM | +++ (≥350) | < 100% | – | –
2 | COc1ccc(C(F)(F)F)cc1CN[C@H]1[C@H](C(C)(C)C)[C@@H](C(=O)O)N(C(=O)C2CC(C)CC(C)C2)[C@H]1c1ccccc1 (stereo partly shown) [III-196] | < 1000 nM | < 1000 nM | +++ (≥350) | – | – | – | – | – | 100 to 200% | –
3 | COc1ccc(-c2cnn(C)c2)cc1CN[C@H]1[C@H](C(C)(C)C)[C@@H](C(=O)O)N(C(=O)C2CCCCC2)[C@H]1c1ccccc1 [III-186] | 1000 to 10000 nM | 1000 to 10000 nM | ++ (≥150 and <350) | – | – | – | – | – | < 100% | –
4 | COc1ccc(C(F)(F)F)cc1CN[C@H]1[C@H](C(C)(C)C)[C@@H](C(=O)O)N(C(=O)C2C3CCCC32)[C@H]1c1ccccc1 (stereo partly shown) [Example I-161] | 1000 to 10000 nM | 1000 to 10000 nM | +++ (≥350) | > 200% | – | – | – | – | – | –
5 | COc1ncc(C(F)(F)F)cc1CN[C@H]1[C@H](C(C)(C)C)[C@@H](C(=O)O)N(C(=O)C2CCCCC2)[C@H]1c1ccccc1F [Example I-110] | < 1000 nM | < 1000 nM | +++ (≥350) | < 100% | – | – | – | – | – | –
6 | COc1ccc(CC(C)C)cc1CN[C@H]1[C@H](C(C)(C)C)[C@@H](C(=O)O)N(C(=O)C2CCCCC2)[C@H]1c1ccccc1 [Example I-94] | < 1000 nM | < 1000 nM | +++ (≥350) | > 200% | – | – | – | – | – | –
7 | COc1ncc(C(F)(F)F)cc1CN[C@H]1[C@H](C(C)(C)C)[C@@H](C(=O)O)N(C(=O)C2CCCCC2)[C@H]1c1ccccc1C [Example I-258] | – | – | – | – | < 1000 nM | < 1000 nM | +++ (≥350) | 100 to 200% | – | –
8 | CC(C)c1ccccc1[C@H]1[C@@H](NCc2cccc3c2OC(C)(C)C3)[C@H](C(C)(C)C)[C@@H](C(=O)O)N1C(=O)[C@@H]1CCCCO1 [Example I-306] | – | – | – | – | < 1000 nM | < 1000 nM | +++ (≥350) | > 200% | – | –
9 | COc1ccc(C(F)(F)F)cc1CN[C@H]1[C@H](C(C)(C)C)[C@@H](C(=O)O)N(C(=O)C(OC)C(C)C)[C@H]1c1ccccc1 (stereo partly shown) [II-273] | – | – | – | – | 1000 to 10000 nM | 1000 to 10000 nM | +++ (≥350) | > 200% | – | –
10 | CC(C)(C)c1cccc(CN[C@H]2[C@H](C(C)(C)C)[C@@H](C(=O)O)N(C(=O)C3CCCCC3)[C@H]2c2ccccc2)c1 [II-121] | – | – | – | – | 1000 to 10000 nM | 1000 to 10000 nM | ++ (≥150 and <350) | < 100% | – | –
11 | COc1ccc(C(F)(F)F)cc1CN[C@H]1[C@H](C(C)(C)C)[C@@H](C(=O)O)N(C(=O)[C@@H]2OCC[C@@H]2C)[C@H]1c1ccccc1 (relative stereo) [II-274] | – | – | – | – | 1000 to 10000 nM | 1000 to 10000 nM | +++ (≥350) | > 200% | – | –
12 | CC(C)(C)[C@H]1[C@H](Nc2ccc(C3(C#N)CC3)cn2)[C@H](c2ccccc2)N(C(=O)C2CCCCC2)[C@@H]1C(=O)O [III-159] | > 10000 nM | 1000 to 10000 nM | ++ (≥150 and <350) | – | – | – | – | – | < 100% | –
13 | COc1ccc(Cl)cc1CN[C@H]1[C@H](C(C)(C)C)[C@@H](C(=O)O)N(C(=O)C2CCCCC2)[C@H]1c1ccccc1 [II-97] | – | – | – | – | 1000 to 10000 nM | < 1000 nM | +++ (≥350) | > 200% | – | –
14 | COc1ccc(-c2cncnc2)cc1CN[C@H]1[C@H](C(C)(C)C)[C@@H](C(=O)O)N(C(=O)C2CCCCC2)[C@H]1c1ccccc1 [Example I-114] | 1000 to 10000 nM | 1000 to 10000 nM | ++ (≥150 and <350) | < 100% | – | – | – | – | – | –

Further lines, results first:

Row | EC50 [1] | EC50 [2] | Maximum % activity (with co-corrector) (with co-corrector (2 μM)) | Emax (without co-corrector) | EC50 [3] | EC50 [4] | Maximum % activity (with co-corrector) [5] | Emax (CSE-HRP, without co-corrector) | Emax [6] | Maximum % activity (with co-corrector) [7] | Structure (SMILES)
15 | < 1000 nM | < 1000 nM | +++ (≥350) | 100 to 200% | – | – | – | – | – | – | COc1ccc(C(C)(C)C)cc1CN[C@H]1[C@H](C(C)(C)C)[C@@H](C(=O)O)N(C(=O)C2Cc3ccccc3O2)[C@H]1c1cccnc1OC (single isomer, unassigned) [Example I-165]
16 | > 10000 nM | > 10000 nM | + (<150) | < 100% | – | – | – | – | – | – | COc1ccc(Cl)cc1CN[C@H]1[C@H](C(C)(C)C)[C@@H](C(=O)O)N(C(=O)C2CCCCC2)[C@H]1c1ncccc1OC (racemic) [Example I-40]
17 | 1000 to 10000 nM | 1000 to 10000 nM | – | – | – | – | – | – | 100 to 200% | +++ (≥350) | COc1ccc(C(F)(F)F)cc1CN[C@H]1[C@H](C(C)(C)C)[C@@H](C(=O)O)N(C(=O)C2CCCCC2)[C@H]1c1cccnc1OC [II-573]
18 | 1000 to 10000 nM | 1000 to 10000 nM | – | – | – | – | – | – | > 200% | +++ (≥350) | COc1ncc(C(F)(F)F)cc1CN[C@H]1[C@H](C(C)(C)C)[C@@H](C(=O)O)N(C(=O)OC(C)C)[C@H]1c1ccccc1C [II-580]
19 | > 10000 nM | 1000 to 10000 nM | ++ (≥150 and <350) | < 100% | – | – | – | – | – | – | COc1ncc(C(F)(F)F)cc1N[C@H]1[C@H](C(C)(C)C)[C@@H](C(=O)O)N(C(=O)[C@@H]2CCCCO2)[C@H]1c1cccnc1N(C)C [Example I-215]
20 | 1000 to 10000 nM | 1000 to 10000 nM | +++ (≥350) | < 100% | – | – | – | – | – | – | COc1cc(C(F)(F)F)cc(N[C@@H]2[C@@H](C(C)(C)C)[C@H](C(=O)O)N(C(=O)OC(C)C)[C@@H]2c2ccccc2)n1 (racemic) [Example I-10]
21 | 1000 to 10000 nM | 1000 to 10000 nM | +++ (≥350) | 100 to 200% | – | – | – | – | – | – | COc1ccc(C(C)(C)C)cc1CN[C@H]1[C@H](C(C)(C)C)[C@@H](C(=O)O)N(C(=O)OC(C)C)[C@H]1c1cccnc1N(C)C [Example 66, (2S,3S,4S,5S)-3-tert-butyl-4-{[(5-tert-butyl-2-methoxyphenyl)methyl]amino}-5-[2-(dimethylamino)pyridin-3-yl]-1-{[(propan-2-yl)oxy]carbonyl}pyrrolidine-2-carboxylic acid]
22 | 1000 to 10000 nM | 1000 to 10000 nM | – | – | – | – | – | – | 100 to 200% | +++ (≥350) | COc1ccc(C(C)(C)C)cc1CN[C@H]1[C@H](C(C)(C)C)[C@@H](C(=O)O)N(C(=O)C2CCCCO2)[C@H]1c1cccnc1OC(F)F (single isomer, unassigned) [II-489]
23 | 1000 to 10000 nM | 1000 to 10000 nM | +++ (≥350) | 100 to 200% | – | – | – | – | – | – | COc1ncc(C2CCC2)cc1CN[C@H]1[C@H](C(C)(C)C)[C@@H](C(=O)O)N(C(=O)C2CCCCC2)[C@H]1c1cccnc1OC [Example I-237]
24 | 1000 to 10000 nM | 1000 to 10000 nM | – | – | – | – | – | – | > 200% | +++ (≥350) | COc1ccc(C23CC(C2)C3)cc1CN[C@H]1[C@H](C(C)(C)OC)[C@@H](C(=O)O)N(C(=O)OC(C)C)[C@H]1c1cccnc1N(C)C [II-501]
25 | – | – | – | – | 1000 to 10000 nM | 1000 to 10000 nM | +++ (≥350) | > 200% | – | – | COc1ccc(Cl)cc1CN[C@@H]1[C@@H](C(C)(C)C)[C@H](C(=O)O)N(C(=O)OC(C)C)[C@@H]1c1cccnc1N(C)C (racemic) [II-28]
26 | < 1000 nM | < 1000 nM | +++ (≥350) | – | – | – | – | – | > 200% | – | COc1ccc(C23CC(C2)C3)cc1CN[C@H]1[C@H](C(C)(C)C)[C@@H](C(=O)O)N(C(=O)OC(C)C)[C@H]1c1ccccc1C(C)C [III-220]
27 | – | – | – | – | 1000 to 10000 nM | 1000 to 10000 nM | +++ (≥350) | > 200% | – | – | COc1cc(OC(F)(F)F)ccc1CN[C@@H]1[C@@H](C(C)(C)C)[C@H](C(=O)O)N(C(=O)OC(C)C)[C@@H]1c1ccccc1 (racemic) [II-41]
28 | – | – | – | – | 1000 to 10000 nM | 1000 to 10000 nM | +++ (≥350) | 100 to 200% | – | – | COc1ccccc1CN[C@@H]1[C@@H](C(C)(C)C)[C@H](C(=O)O)N(C(=O)OC(C)C)[C@@H]1c1ccccc1 (racemic) [II-46]
29 | 1000 to 10000 nM | 1000 to 10000 nM | – | – | – | – | – | – | 100 to 200% | +++ (≥350) | COc1cc2ccccc2cc1CN[C@H]1[C@H](C(C)(C)C)[C@@H](C(=O)O)N(C(=O)OC(C)C)[C@H]1c1cccnc1N(C)C [II-562]
30 | 1000 to 10000 nM | 1000 to 10000 nM | – | – | – | – | – | – | 100 to 200% | +++ (≥350) | COc1cc2c(cc1CN[C@H]1[C@H](C(C)(C)C)[C@@H](C(=O)O)N(C(=O)OC(C)C)[C@H]1c1cccnc1N(C)C)CCC2 [II-563]
31 | 1000 to 10000 nM | 1000 to 10000 nM | – | – | – | – | – | – | < 100% | ++ (≥150 and <350) | COc1nc2ccccc2cc1CN[C@H]1[C@H](C(C)(C)C)[C@@H](C(=O)O)N(C(=O)[C@@H]2CCCO2)[C@H]1c1cccnc1N(C)C [II-599]
